Source: patent US20160046618A1, “Cyclopropyl Fused Thiazin-2-Amine Compounds as Beta-Secretase Inhibitors and Methods of Use” (AMGEN INC., priority 2014, published 2016)

Tests used:
human recombinant BACE1 = human recombinant BACE1 (Homo sapiens (Human), UniProt P56817); assay: In vitro enzymatic BACE1 FRET assay; type: biochemical; settings: read-out: IC50 IP (μM) BACE1 enzyme
Procedure, shortened: (§1)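 Reactions were initiated by adding 50 nM of a peptide carrying fluorophore and quencher on opposite sides of the cleavage site and ran for one hour. Tris buffer then brought the pH to neutrality, ending the reaction, and fluorescence was measured (488 nm excitation, 590 nm emission).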

human recombinant BACE2 = human recombinant BACE2 (Homo sapiens (Human), UniProt Q9Y5Z0); assay: In vitro enzymatic BACE2 FRET assay; type: biochemical; settings: read-out: IC50 IP (μM) BACE2 enzyme
Procedure, shortened: as §1

[1] = system: Aβ40 in conditioned medium of cells stably expressing Amyloid Precursor Protein (APP); assay: In vitro BACE-1 cell-based assay (Aβ40 sandwich ELISA); settings: read-out: IC50 IP (μM) BACE1 cell
Procedure, shortened: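 Aβ40 in supernatants measured by time-resolved fluorescence sandwich ELISA, with pAb40 as capture and biotin-6E10 as detector antibody, each incubated at 4 °C.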

Recombinant Cat D = Recombinant Cat D (Homo sapiens (Human), UniProt P07339); assay: In vitro enzymatic Cathepsin D (Cat D) FRET assay; type: biochemical; settings: read-out: IC50 IP (μM) CatD
Procedure, shortened: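 Human Cat D expressed in CHO cells was incubated for one hour in 0.05 M citrate pH 3.5, 5 mM CHAPS, 10% DMSO final, with 20 nM quenched FRET peptide substrate. Reactions were stopped with Tris buffer raising pH to neutrality. Cleavage was read as fluorescence at excitation 500 nm, emission 580 nm.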

Sequence of human recombinant BACE1 (P56817 46-501): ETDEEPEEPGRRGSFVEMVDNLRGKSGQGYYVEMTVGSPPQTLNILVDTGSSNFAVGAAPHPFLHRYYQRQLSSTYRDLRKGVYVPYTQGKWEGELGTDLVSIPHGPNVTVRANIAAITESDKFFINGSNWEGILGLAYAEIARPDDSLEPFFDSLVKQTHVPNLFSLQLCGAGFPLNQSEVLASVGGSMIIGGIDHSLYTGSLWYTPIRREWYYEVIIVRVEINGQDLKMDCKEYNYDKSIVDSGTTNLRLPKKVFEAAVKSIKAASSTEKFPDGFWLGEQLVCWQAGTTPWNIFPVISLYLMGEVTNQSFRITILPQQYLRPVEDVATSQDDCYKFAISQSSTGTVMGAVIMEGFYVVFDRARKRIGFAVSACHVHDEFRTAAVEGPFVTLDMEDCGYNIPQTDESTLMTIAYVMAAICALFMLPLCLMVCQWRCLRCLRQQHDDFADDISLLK
Sequence of Recombinant Cat D (P07339 65-412): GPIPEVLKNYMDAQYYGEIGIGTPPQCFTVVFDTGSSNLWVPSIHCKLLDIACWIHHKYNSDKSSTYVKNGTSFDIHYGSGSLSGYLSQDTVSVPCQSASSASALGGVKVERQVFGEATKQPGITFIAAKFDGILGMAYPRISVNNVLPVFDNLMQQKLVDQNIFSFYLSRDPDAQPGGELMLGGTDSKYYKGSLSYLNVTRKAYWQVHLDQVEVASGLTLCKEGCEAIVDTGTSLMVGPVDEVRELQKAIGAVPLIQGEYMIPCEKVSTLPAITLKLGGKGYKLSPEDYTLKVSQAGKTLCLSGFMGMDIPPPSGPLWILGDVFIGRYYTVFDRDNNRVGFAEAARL
Sequence of human recombinant BACE2 (Q9Y5Z0 63-518): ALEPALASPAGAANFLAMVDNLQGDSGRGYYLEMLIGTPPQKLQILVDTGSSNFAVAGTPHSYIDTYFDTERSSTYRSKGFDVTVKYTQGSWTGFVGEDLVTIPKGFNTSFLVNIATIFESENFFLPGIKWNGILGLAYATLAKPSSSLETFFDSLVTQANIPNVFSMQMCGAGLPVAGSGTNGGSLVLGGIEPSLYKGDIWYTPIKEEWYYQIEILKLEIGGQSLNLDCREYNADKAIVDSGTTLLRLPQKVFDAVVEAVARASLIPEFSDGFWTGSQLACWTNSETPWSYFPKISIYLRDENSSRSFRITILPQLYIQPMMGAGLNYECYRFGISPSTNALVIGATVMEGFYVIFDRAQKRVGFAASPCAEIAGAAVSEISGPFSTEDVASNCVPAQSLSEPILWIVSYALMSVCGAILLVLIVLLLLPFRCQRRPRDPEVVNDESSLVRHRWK

SMILES	IC50 (human recombinant BACE1)	IC50 (human recombinant BACE2)	IC50 [1]	IC50 (Recombinant Cat D)
COC[C@]12C[C@H]1[C@@](C)(c1cc(Nc3ncc(F)c4cc(OCc5ncco5)cnc34)cc(F)c1F)N=C(N)S2 [Example 950, N-(3-((1S,5S,6S)-3-amino-1-(methoxymethyl)-5-methyl-2-thia-4-azabicyclo[4.1.0]hept-3-en-5-yl)-4,5-difluorophenyl)-5-fluoro-3-(1,3-oxazol-2-ylmethoxy)-1,7-naphthyridin-8-amine]	5.1 nM	0.118 µM	0.104 µM	384 µM
C#CCOc1cnc2c(Nc3cc(F)c(F)c([C@@]4(C)N=C(N)S[C@@]5(COC)C[C@H]54)c3)ncc(F)c2c1 [Example 951, N-(3-((1S,5S,6S)-3-amino-1-(methoxymethyl)-5-methyl-2-thia-4-azabicyclo[4.1.0]hept-3-en-5-yl)-4,5-difluorophenyl)-5-fluoro-3-(2-propyn-1-yloxy)-1,7-naphthyridin-8-amine]	2.33 nM	0.0497 µM	0.0603 µM	915 µM
CCC#CCOc1cnc2c(Nc3ccc(F)c([C@@]4(CF)N=C(N)S[C@@]5(/C=C/C(=O)N(C)C)C[C@H]54)c3)nccc2n1 [Example 952, (2E)-3-((1R,5S,6S)-3-amino-5-(fluoromethyl)-5-(2-fluoro-5-((2-(2-pentyn-1-yloxy)pyrido[3,4-b]pyrazin-5-yl)amino)phenyl)-2-thia-4-azabicyclo[4.1.0]hept-3-en-1-yl)-N,N-dimethyl-2-propenamide]	1.26 nM	0.00755 µM	0.0108 µM	16.3 µM
C#CCOc1cnc(C(=O)Nc2ccc(F)c([C@@]3(CF)N=C(N)S[C@@]4(COCC(F)(F)F)C[C@H]43)c2)cn1 [Example 953, N-(3-((1S,5S,6S)-3-amino-5-(fluoromethyl)-1-((2,2,2-trifluoroethoxy)methyl)-2-thia-4-azabicyclo[4.1.0]hept-3-en-5-yl)-4-fluorophenyl)-5-(2-propyn-1-yloxy)-2-pyrazinecarboxamide]	0.28 nM	0.0267 µM	0.00149 µM	61.9 µM
NC1=N[C@](CF)(c2cc(NC(=O)c3ccc(Cl)cn3)ccc2F)[C@@H]2C[C@]2(COCC(F)(F)F)S1 [Example 954, N-(3-((1S,5S,6S)-3-amino-5-(fluoromethyl)-1-((2,2,2-trifluoroethoxy)methyl)-2-thia-4-azabicyclo[4.1.0]hept-3-en-5-yl)-4-fluorophenyl)-5-chloro-2-pyridinecarboxamide]	5.79 nM	0.00382 µM	0.0144 µM	715 µM
C#CCOc1cnc(C(=O)Nc2ccc(F)c([C@@]3(CF)N=C(N)S[C@@]4(COC(C)C)C[C@H]43)c2)cn1 [Example 955, N-(3-((1S,5S,6S)-3-amino-5-(fluoromethyl)-1-((1-methylethoxy)methyl)-2-thia-4-azabicyclo[4.1.0]hept-3-en-5-yl)-4-fluorophenyl)-5-(2-propyn-1-yloxy)-2-pyrazinecarboxamide]	0.805 nM	0.0501 µM	0.00178 µM	48 µM
NC1=N[C@](CF)(c2cc(NC(=O)c3ccc(Cl)cn3)ccc2F)[C@@H]2C[C@]2(c2c[nH]nn2)S1 [Example 956, N-(3-((1S,5S,6S)-3-amino-5-(fluoromethyl)-1-(1H-1,2,3-triazol-4-yl)-2-thia-4-azabicyclo[4.1.0]hept-3-en-5-yl)-4-fluorophenyl)-5-chloro-2-pyridinecarboxamide]	0.927 nM	< 0.00203 µM	0.019 µM	341 µM
CC#C[C@]12C[C@H]1[C@@](CF)(c1cc(Nc3nccc4nc(OCc5ncco5)cnc34)ccc1F)N=C(N)S2 [Example 958, N-(3-((1S,5S,6S)-3-amino-5-(fluoromethyl)-1-(1-propyn-1-yl)-2-thia-4-azabicyclo[4.1.0]hept-3-en-5-yl)-4-fluorophenyl)-2-(1,3-oxazol-2-ylmethoxy)pyrido[3,4-b]pyrazin-5-amine]	1.2 nM	0.0662 µM	0.04 µM	354 µM
C#CCOc1cnc(C(=O)Nc2ccc(F)c([C@@]3(CF)N=C(N)S[C@@]4(c5c[nH]nn5)C[C@@H]34)c2)cn1 [Example 959, N-(3-((1S,5S,6S)-3-amino-5-(fluoromethyl)-1-(1H-1,2,3-triazol-4-yl)-2-thia-4-azabicyclo[4.1.0]hept-3-en-5-yl)-4-fluorophenyl)-5-(2-propyn-1-yloxy)-2-pyrazinecarboxamide]	0.0901 nM	< 0.00203 µM	0.00152 µM	44.1 µM
C#CCOc1cnc2c(Nc3ccc(F)c([C@@]4(CF)N=C(N)S[C@@]5(c6c[nH]nn6)C[C@@H]45)c3)nccc2n1 [Example 960, N-(3-((1S,5S,6S)-3-amino-5-(fluoromethyl)-1-(1H-1,2,3-triazol-4-yl)-2-thia-4-azabicyclo[4.1.0]hept-3-en-5-yl)-4-fluorophenyl)-2-(2-propyn-1-yloxy)pyrido[3,4-b]pyrazin-5-amine]	0.507 nM	0.00422 µM	0.00624 µM	> 400 µM
C[C@]1(c2cc(Nc3ncnc4cc(C#N)cnc34)ccc2F)N=C(N)S[C@@]2(CO)[C@@H]1C2(F)F [Example 961, 4-((3-((1R,5S,6S)-3-amino-7,7-difluoro-1-(hydroxymethyl)-5-methyl-2-thia-4-azabicyclo[4.1.0]hept-3-en-5-yl)-4-fluorophenyl)amino)pyrido[3,2-d]pyrimidine-7-carbonitrile]	12 nM	0.0223 µM	0.0214 µM	171 µM
NC1=N[C@](CF)(c2cc(NC(=O)c3ccc(Cl)cn3)ccc2F)[C@H]2C3CSC[C@@]32S1 (stereo partly drawn) [Example 962, N-(3-((4S,4aR,7aS)-2-amino-4-(fluoromethyl)-4a,4b,5,7-tetrahydro-4H-thieno[3′,4′:2,3]cyclopropa[1,2-e][1,3]thiazin-4-yl)-4-fluorophenyl)-5-chloropicolinamide]	10 nM	0.0199 µM	0.104 µM	21 µM
CNC(=O)[C@]12C[C@H]1[C@@](C)(c1cc(NC(=O)c3cnc(OCC(F)(F)C(F)F)cn3)cc(F)c1F)N=C(N)S2 [Example 963, (1S,5S,6S)-3-amino-5-(2,3-difluoro-5-(((5-(2,2,3,3-tetrafluoropropoxy)-2-pyrazinyl)carbonyl)amino)phenyl)-N,5-dimethyl-2-thia-4-azabicyclo[4.1.0]hept-3-ene-1-carboxamide]	0.194 nM	0.0631 µM	0.0026 µM	267 µM
C#CCOc1cnc(C(=O)Nc2cnc(OC)c([C@@]3(C)N=C(N)S[C@@]4(C#N)C[C@H]43)c2)cn1 [Example 964, N-(5-((1S,5S,6S)-3-amino-1-cyano-5-methyl-2-thia-4-azabicyclo[4.1.0]hept-3-en-5-yl)-6-methoxy-3-pyridinyl)-5-(2-propyn-1-yloxy)-2-pyrazinecarboxamide]	0.737 nM	0.00887 µM	0.00154 µM	98.9 µM
C#C[C@H](C)Oc1cnc(C(=O)Nc2cc(F)c(F)c([C@@]3(C)N=C(N)S[C@@]4(C(=O)NC)C[C@H]43)c2)cn1 [Example 967, (1S,5S,6S)-3-amino-5-(2,3-difluoro-5-(((5-(((1S)-1-methyl-2-propyn-1-yl)oxy)-2-pyrazinyl)carbonyl)amino)phenyl)-N,5-dimethyl-2-thia-4-azabicyclo[4.1.0]hept-3-ene-1-carboxamide]	0.11 nM	0.0149 µM	0.000539 µM	269 µM
COC[C@H](C)Oc1cnc(C(=O)Nc2ccc(F)c([C@@]3(C)N=C(N)S[C@@]4(COC)C[C@H]43)c2)cn1 [Example 970, N-(3-((1S,5S,6S)-3-amino-1-(methoxymethyl)-5-methyl-2-thia-4-azabicyclo[4.1.0]hept-3-en-5-yl)-4-fluorophenyl)-5-((1S)-2-methoxy-1-methylethoxy)-2-pyrazinecarboxamide]	8.5 nM	0.333 µM	0.021 µM	> 400 µM
COC[C@H](C)Oc1cnc(C(=O)Nc2ccc(F)c([C@@]3(C)N=C(N)S[C@@]4(C(F)F)C[C@@H]34)c2)cn1 [Example 971, N-(3-((1S,5S,6S)-3-amino-1-(difluoromethyl)-5-methyl-2-thia-4-azabicyclo[4.1.0]hept-3-en-5-yl)-4-fluorophenyl)-5-((1S)-2-methoxy-1-methylethoxy)-2-pyrazinecarboxamide]	5.22 nM	0.38 µM	0.0185 µM	611 µM
C[C@]1(c2cc(NC(=O)c3cnc(OCC(F)(F)F)cn3)ccc2F)N=C(N)S[C@@]2(C(=O)NCC(F)(F)F)C[C@H]21 [Example 972, (1S,5S,6S)-3-amino-5-(2-fluoro-5-(5-(2,2,2-trifluoroethoxy)pyrazine-2-carboxamido)phenyl)-5-methyl-N-(2,2,2-trifluoroethyl)-2-thia-4-azabicyclo[4.1.0]hept-3-ene-1-carboxamide]	0.454 nM	0.0794 µM	0.00455 µM	138 µM
